Measurements: patent US20140128357A1, “METHODS OF PRODUCING AND USING BRASSINOSTEROIDS TO PROMOTE GROWTH, REPAIR AND MAINTENANCE OF SKELETAL MUSCLE AND SKIN” (Rutgers University, priority 2010, published 2014)
Where two headings read alike, the source gives them in different places.

Tests used:
L6 rat myotubes [1] = experiment: Protein degradation, release of acid-soluble [3H]-phenylalanine; type: cell-based; conditions: 10 μM; for Protein degradation (% decrease over control): 4 h
Experimental: In some aspects, cell culture experiments were carried out. Rat L6 skeletal muscle cell line CRL-1458 was obtained from ATCC (Manassas, Va.). Myoblasts were routinely maintained in Dulbecco's modified Eagle's medium (DMEM) containing 10% FBS and 0.1% penicillin-streptomycin at 37° C. and 5% CO2. Cells were subcultured into 24-well plates for protein synthesis, degradation, and cell viability studies and into 6-well plates for Western blot analyses (Greiner Bio One, Monroe, N.C.). Once cells reached 90% confluence, differentiation was induced by lowering the serum concentration to 2%, and medium was changed every 2 days. […] NIH 3T3 murine embryonic fibroblast cell line (ATCC #CCL-92) was maintained in DMEM and 10% FBS at 37° C. in 5% CO2, and passaged every 3-4 days.
In various aspects, protein degradation is measured to determine the effect of brassinosteroid on a particular protein. All known methods for measuring protein degradation are included in the methods of the disclosure. The effect of brassinosteroids on protein degradation was investigated in fully differentiated myotubes as described by Fawcett et al. (Arch. Biochem. Biophys. 385:357-363, 2001) with slight modifications. Fully differentiated myotubes were incubated for 16 h to allow labeling of cellular proteins with 1.5 μCi/mL [^3H]-phenylalanine. […] The incubation was stopped by placing the cells on ice, and protein in the medium was precipitated with 5% trichloroacetic acid. Specific radioactivity of protein-free phenylalanine was quantified using liquid scintillation counter LS 6500 (Beckman Coulter, Fullerton, Calif.) and normalized to mg of total cell protein determined by BCA protein assay (Pierce Biotechnology, Rockford, Ill.).
The bioactivity of HB and its analogs (as shown in Table 3) were also evaluated by measuring decreases in protein degradation in the L6 rat skeletal muscle cells in vitro. Cells were labeled overnight with [^3H]-phenylalanine and subsequently treated for 4 h in triplicate with vehicle (0.1% ethanol) or test compound (10 μM), and protein degradation was assessed as release of acid-soluble [^3H]-phenylalanine into the media normalized by total protein (Table 3).

L6 rat myotubes [2] = experiment: Protein synthesis, [3H]-phenylalanine incorporation in myotubes; type: cell-based; conditions: 10 μM; for Protein synthesis (% increase over control): 4 h
Experimental: In some aspects, cell culture experiments were carried out. Rat L6 skeletal muscle cell line CRL-1458 was obtained from ATCC (Manassas, Va.). Myoblasts were routinely maintained in Dulbecco's modified Eagle's medium (DMEM) containing 10% FBS and 0.1% penicillin-streptomycin at 37° C. and 5% CO2. Cells were subcultured into 24-well plates for protein synthesis, degradation, and cell viability studies and into 6-well plates for Western blot analyses (Greiner Bio One, Monroe, N.C.). Once cells reached 90% confluence, differentiation was induced by lowering the serum concentration to 2%, and medium was changed every 2 days. After 7-9 days of culture the myoblasts had fused into multinucleated myotubes (Mandel et al., Nature 251:618-620, 1974). NIH 3T3 murine embryonic fibroblast cell line (ATCC #CCL-92) was maintained in DMEM and 10% FBS at 37° C. in 5% CO2, and passaged every 3-4 days.
In various aspects, protein synthesis is measured to determine the effect of brassinosteroid on a particular protein. All known methods for measuring protein synthesis are included in the methods of the disclosure. In brassinosteroid dose response studies, fully differentiated myotubes were washed with serum-free DMEM and treated in triplicate with vehicle (0.1% ethanol), increasing concentrations of HB, or 6.5 nM of insulin-like growth factor-1 (IGF-1) as a positive control. Compounds were added to serum-free medium containing 0.5 μCi/mL [^3H]-phenylalanine and incubated for 4 h. For the HB time course study, fully differentiated myotubes were treated with 3 μM HB for 1-24 h using the same culture conditions. The incubation was stopped by placing cells on ice, discarding the medium, and washing the cells extensively with ice-cold PBS to remove the non-incorporated radiolabel. Proteins were precipitated with 5% trichloroacetic acid and dissolved in 0.5N NaOH (Montgomery et al., Methods Cell. Sci. 24:123-129, 2002). Specific radioactivity of protein-bound phenylalanine was quantified using liquid scintillation counter LS 6500 (Beckman Coulter, Fullerton, Calif.) and normalized to mg of total protein determined by BCA protein assay (Pierce Biotechnology, Rockford, Ill.).
The bioactivity of HB and its analogs was evaluated by measuring increases in protein synthesis in the L6 rat skeletal muscle cells in vitro. Cells were incubated for 4 h with [^3H]-phenylalanine and treated in triplicate with vehicle (0.1% ethanol) or test compound (10 μM), and protein synthesis was measured as incorporation of [^3H]-phenylalanine into protein normalized by total protein (Table 3). Under these conditions, both HB and (22S,23S)-homocastasterone increased protein synthesis by 37.2±5.9% (p<0.001) and 41.0±2.7% (p<0.001), respectively. This protein synthesis increase compared favorably to the biological activity of IGF-1 at 6.5 nM (42.5±4.5%, p<0.001) that served as a positive control in this assay. Removal of the 2α-hydroxyl group and fluorination at C-3 in the A ring (compound IDs 3-4 in Table 3) led to about a 50% decrease in bioactivity (24.6±5.3%, p<0.01 and 22.5±2.7%, p<0.01, respectively) compared to the positive control. However, there was still an increase in protein synthesis. […] Modifications in the side chain (compound IDs 7-9 in Table 3) abolished the activity.

[3] = system: 3T3 Swiss fibroblast monolayers; experiment: Scratch wound closure in vitro; type: cell-based, mouse; conditions: for Scratch wound closure at 5 μM, % of control: 12 h (Table 6); for Wound Closure (% over control): 10 μM, 12 h (Table 4)
Experimental: 3T3 fibroblasts were seeded into 24-well dishes at a concentration of 3×10^5 cells/ml and cultured to nearly confluent cell monolayers. On the day of the experiment, a linear wound was generated in the monolayer with a sterile 100 μl plastic pipette tip and any cellular debris was removed by washing cells once with sterile PBS. Fresh DMEM medium containing vehicle (0.1% ethanol), positive control (0.5% FBS), or various concentrations of the fractions, sub-fractions or pure compounds was added to a set of 3 wells per dose and incubated for 12 h at 37° C. with 5% CO2. Cells were then visualized with 20 μl of 10% methylene blue in PBS for 5 min. Three representative images of the scratched areas from each well were photographed at 0 and 12 h to estimate the scratch wound closure. Images were analyzed using ImageJ program (NIH, Bethesda, Md.) and % wound closure was calculated relative to vehicle control and was reported as wound closure % over control (Table 4). 3T3 Swiss fibroblast were seeded into 24-well tissue culture at a concentration of 3×10^5 cells/ml and cultured to nearly confluent cell monolayers. Then, a linear wound was generated in the monolayer with a sterile 100 μl plastic pipette tip. Any cellular debris was removed by washing with PBS. DMEM medium with vehicle (0.1% ethanol), FBS (1%, positive control), or various concentrations of brassinosteroids were added to a set of 3 wells per dose and incubated for 12 h at 37° C. with 5% CO2. Cells were visualized in 10% methylene blue for 5 minutes. Three representative images from each well of the scratched areas under each condition were photographed to estimate the relative migration of cells at 0 and 12 h post-treatment. Data were analyzed using ImageJ software available online from the National Institutes of Health (rsbweb.nih.gov/ij/) by calculating the percentage of scratch closure at each dose point relative to control.

[4] = system: NIH 3T3 murine fibroblast cell line; experiment: Cytotoxicity, MTT assay in 3T3 fibroblasts; type: cell-based, mouse
Experimental: FIG. 9. Cell survival curves as measured by MTT assay for brassinosteroids 1-9 against the murine fibroblast cell line NIH-3T3. Cells were incubated with various concentrations of brassinosteroids (0.3-30 μM) for 24 h at 37° C. The mean absorbance of the control cells represented 100% cell proliferation, and the mean absorbance of treated cells was related to control values to determine sensitivity. Error bars represent standard error (n=6) from mean cell proliferation as determined by repeated experiments.
In various aspects, cell viability is measured and the effects of doses of compound and test reagents are tested in cell lines. In some aspects, cell viability was measured by the MTT (3-(4,5-Dimethylthiazol-2-yl)-2,5-diphenyltetrazolium bromide) assay in triplicate (Mosmann et al., J. Immunol. Methods 65:55-63, 1983) and quantified spectrophotometrically at 550 nm using a microplate reader (Molecular Devices, Sunnyvale, Calif.).
3T3 fibroblasts were seeded in a 96-well flat bottom plate at a density of 1×10^4 cells/well. Cell viability was measured by an MTT (3-(4,5-Dimethylthiazol-2-yl)-2,5-diphenyltetrazolium bromide) assay in triplicate (0.3-30 μM of test substance for […]) essentially as described by Mosmann (J. Immunol. Methods 65, 55-63, 1983) and quantified spectrophotometrically at 550 nm using a microplate reader (Molecular Devices, Sunnyvale, Calif.). […] For cell proliferation studies, cells were treated in triplicate with 0.1-10 μM of test substance for 24 h and assayed using a BrdU (5-bromo-2′-deoxyuridine) kit from Amersham (Uppsala, Sweden).

[5] = system: orchiectomized (ORX) Wistar rats; type: in vivo, rat; conditions: ORX rats, 0.4 mg/kg subcutaneous 10 d, positive control of oral study
Experimental: Protocol 3: Four-week-old sham-operated (sham, n=6) or orchiectomized (ORX, n=24) Wistar rats (Charles River Laboratories, MA) were subject to a 10-d Hershberger assay (surgically castrated peri-pubertal adult model) under the following experimental conditions: sham, ORX (vehicle), ORX (20 mg/kg HB orally), ORX (60 mg/kg HB orally), and ORX (0.4 mg/kg testosterone propionate subcutaneously, serving as a positive control for the assay). All procedures and measurements followed protocol 1, except no body composition measurements were taken. Limb grip strength was measured for control animals and animals receiving 60 mg/kg HB using a digital force gauge (Wagner Instruments model FDV5) by Product Safety Laboratories (Dayton, N.J.). After the rats were allowed to grip the screen with paws, the animals were quickly pulled until the paws released from the screen, and the required release force was recorded. Three trials on each animal were performed in triplicate, and significance was determined using Student's t test (p<0.05). In addition to the gastrocnemius muscle, androgen-sensitive tissues (ventral prostate, seminal vesicles, bulbocavernosus/levator ani muscle complex, glans penis, and Cowper's gland) were dissected out and weighed.
The muscle samples for histochemical analysis were taken from the middle section of the mixed-fiber gastrocnemius muscle of the castrated animals treated according to protocol 4 (described herein above) to allow for the observation of differences in fiber type distribution and cross-section area associated with ORX and HB treatments. Serial transverse cryosections (10 μm) were prepared from each muscle and were analyzed for myofibrillar adenosine triphosphatase (mATPase) histochemistry after alkaline (pH=9.5) preincubation. Fiber cross-section area and enzyme activity levels were determined from digitized images of the muscle cross-sections that were stored as gray-level pictures using ImageJ software (National Institutes of Health, Bethesda, Md.). […]

[6] = system: orchiectomized (ORX) Wistar rats; experiment: 10-d Hershberger assay in ORX rats, subcutaneous HB (Protocol 4); type: in vivo, rat; conditions: 0.4 mg/kg subcutaneous daily 10 d
Experimental: Protocol 4: Four-week-old sham-operated (sham, n=6) or orchiectomized (ORX, n=24) Wistar rats (Charles River Laboratories, MA) were subject to a 10-d Hershberger assay (surgically castrated peri-pubertal adult model) under the following experimental conditions: sham, ORX (vehicle), ORX (0.4 mg/kg HB subcutaneously), ORX (4 mg/kg HB subcutaneously), and ORX (0.4 mg/kg testosterone propionate subcutaneously, serving as a positive control for the assay). All procedures and measurements followed protocol 1. […]

Structure (SMILES)	Protein degradation (% decrease over control) (L6 rat myotubes [1]) [%]	Protein synthesis (% increase over control) (L6 rat myotubes [2]) [%]	Scratch wound closure at 5 μM, % of control [3] [%]	Wound Closure (% over control) [3] [%]	IC50 [4] [µM]	cytotoxicity compared to the original brassinosteroids [4]	Bulbocavernosus/levator ani weight [5] [mg]	Cowper's gland weight [5] [mg]	Glans penis weight [5] [mg]	Seminal vesicles weight [5] [mg]	Ventral prostate weight [5] [mg]	Bulbocavernosus/levator ani weight [6] [mg]	Cowper's gland weight [6] [mg]	Glans penis weight [6] [mg]	Seminal vesicles weight [6] [mg]	Ventral prostate weight [6] [mg]	effect of structural modification on protein degradation activity, in words (L6 rat myotubes [1])	effect of structural modification on activation of protein synthesis, in words (L6 rat myotubes [2])	concentration of highest scratch wound closure activity ([3]; 0.1-10 μM, 12 h (FIG. 17)) [µM]
CC[C@@H](C(C)C)[C@H](O)[C@@H](O)[C@@H](C)[C@H]1CC[C@H]2[C@@H]3COC(=O)[C@H]4C[C@H](F)CC[C@]4(C)[C@H]3CC[C@]12C [Compound 3, (22S,23S,24S)-3α-fluoro-22,23-dihydroxy-24-ethyl-B-homo-7-oxa-5α-cholestan-6-one]	−20.8 ± 0.5	24.6±5.3	15.3 ± 2.6	15.3 ± 2.6	~30	increased cytotoxicity	–	–	–	–	–	–	–	–	–	–	–	–	–
CCC(=O)O[C@H]1CC[C@H]2[C@@H]3CCC4=CC(=O)CC[C@]4(C)[C@H]3CC[C@]12C [testosterone propionate, reference compound]	–	–	–	–	–	–	382.0 ± 22.0	34.5 ± 4.7	93.8 ± 4.2	262.5 ± 12.5	110.50 ± 9.5	293.8 ± 19.0	34.3 ± 1.9	72.3 ± 4.5	228.7 ± 35.3	92.8 ± 6.3	–	–	–
CC[C@@H](C(C)C)[C@H](O)[C@@H](O)[C@@H](C)[C@H]1CC[C@H]2[C@@H]3CNC(=O)[C@H]4C[C@H](O)[C@H](O)C[C@]4(C)[C@H]3CC[C@]12C [Compound 6, (22S,23S,24S)-2α,3α-22,23-tetrahydroxy-24-ethyl-B-homo-7-aza-5α-cholestan-6-one]	−0.6 ± 2.9	20.9 ± 2.4	30.5 ± 4.2	27.3 ± 3.6	> 30	–	–	–	–	–	–	–	–	–	–	–	completely abolished its effect on protein degradation	reduced biological activity by half	3
